Source: the supplement of paper PMC8617591

Key:
[1] = system: Mycobacterium tuberculosis Erdman (autoluminescent); assay: total FIC90 (Loewe) at 90% inhibition, three-drug combination (log2); higher = more antagonistic
Protocol: (§1)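 DiaMOND equipotent three-drug combination dose responses (10 doses, 1.5- or 2-fold spacing, centred on IC90) against autoluminescent M. tuberculosis Erdman in 8 in vitro models. Read-out is OD600, or luminescence for the intracellular and dormancy models, normalised to untreated wells. Hill-fit Einf, AUC25 and GRinf are potency metrics; FIC50 and FIC90 are total Loewe fractional inhibitory concentrations as log2 (negative = synergy).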

[2] = system: Mycobacterium tuberculosis Erdman (autoluminescent); assay: AUC25, normalised area under dose response up to IC25 (three-drug combination) (fraction (0-1)); higher = more potent at low dose
Protocol: as §1

[3] = system: Mycobacterium tuberculosis Erdman (autoluminescent); assay: GRinf, maximum normalised growth rate inhibition (three-drug combination) (unitless (-1 to 1)); higher = less effect (negative = killing)
Protocol: as §1

[4] = system: Mycobacterium tuberculosis Erdman (autoluminescent); assay: Einf, fitted maximum growth inhibition of three-drug combination (fraction); higher = stronger maximal inhibition
Protocol: as §1

[5] = system: Mycobacterium tuberculosis Erdman (autoluminescent); assay: total FIC50 (Loewe) at 50% inhibition, three-drug combination (log2); higher = more antagonistic
Protocol: as §1

O=[N+]([O-])c1cn2c(n1)OC[C@@H](OCc1ccc(OC(F)(F)F)cc1)C2 [pretomanid] + CO[C@H]1/C=C/O[C@@]2(C)Oc3c(C)c(O)c4c(O)c(c(/C=N/N5CCN(C6CCCC6)CC5)c(O)c4c3C2=O)NC(=O)/C(C)=C\C=C\[C@H](C)[C@H](O)[C@@H](C)[C@@H](O)[C@@H](C)[C@H](OC(C)=O)[C@@H]1C [rifapentine] + CO[C@H]1/C=C/O[C@@]2(C)Oc3c(C)c(O)c4c(O)c(c(/C=N/N5CCN(C)CC5)c(O)c4c3C2=O)NC(=O)/C(C)=C\C=C\[C@H](C)[C@H](O)[C@@H](C)[C@@H](O)[C@@H](C)[C@H](OC(C)=O)[C@@H]1C [rifampicin]
Details | AUC25, [2] | Einf, [4] | GRinf, [3] | total FIC50, [5] | total FIC90, [1]
in vitro model: acidic pH 5.7, time point: constant (~7 days, model-specific) | 0.0846 | 0.906 | -0.198 | 0.583 | –
in vitro model: acidic pH 5.7, time point: terminal (~4-5 doublings, model-specific) | 0.0433 | 0.982 | -0.177 | 0.863 | 0.271
in vitro model: intracellular J774, time point: constant = terminal | – | 0.998 | -0.321 | – | 0.0281

Details | AUC25, [2] | Einf, [4] | GRinf, [3] | total FIC50, [5] | total FIC90, [1]
in vitro model: butyrate, time point: constant (~7 days, model-specific) | 0.0997 | 0.913 | 0.0188 | 0.122 | -0.618
in vitro model: butyrate, time point: terminal (~4-5 doublings, model-specific) | 0.0845 | 0.963 | -0.00218 | -0.0327 | -0.0222
in vitro model: cholesterol 0.05 mM, time point: constant (~7 days, model-specific) | 0.12 | 0.706 | -0.115 | 0.545 | –
in vitro model: cholesterol 0.05 mM, time point: terminal (~4-5 doublings, model-specific) | 0.0882 | 0.891 | -0.0855 | 0.37 | 0.821
in vitro model: cholesterol-high 0.2 mM, time point: constant (~7 days, model-specific) | 0.0723 | 0.899 | -0.242 | 0.542 | 0.699
in vitro model: cholesterol-high 0.2 mM, time point: terminal (~4-5 doublings, model-specific) | 0.0602 | 0.992 | -0.654 | 0.62 | 0.433
in vitro model: dormancy (butyrate + nitrate, low O2), time point: constant (~7 days, model-specific) | 0.0773 | 0.885 | 0.156 | 0.534 | 0.288
in vitro model: dormancy (butyrate + nitrate, low O2), time point: terminal (~4-5 doublings, model-specific) | 0.0339 | 0.968 | -0.0787 | 0.206 | 0.101
in vitro model: standard 7H9 glycerol, time point: constant = terminal | 0.0607 | 0.906 | 0.057 | 0.0183 | –
in vitro model: valerate, time point: constant (~7 days, model-specific) | 0.0681 | 0.866 | 0.0606 | 0.168 | –
in vitro model: valerate, time point: terminal (~4-5 doublings, model-specific) | 0.0473 | 0.937 | 0.0285 | 0.389 | 0.0371

O=[N+]([O-])c1cn2c(n1)OC[C@@H](OCc1ccc(OC(F)(F)F)cc1)C2 [pretomanid] + NC(=O)c1cnccn1 [pyrazinamide] + CO[C@H]1/C=C/O[C@@]2(C)Oc3c(C)c(O)c4c(O)c(c(/C=N/N5CCN(C6CCCC6)CC5)c(O)c4c3C2=O)NC(=O)/C(C)=C\C=C\[C@H](C)[C@H](O)[C@@H](C)[C@@H](O)[C@@H](C)[C@H](OC(C)=O)[C@@H]1C [rifapentine]
Details | AUC25, [2] | Einf, [4] | GRinf, [3] | total FIC50, [5] | total FIC90, [1]
in vitro model: acidic pH 5.7, time point: constant (~7 days, model-specific) | 0.0839 | 0.9 | -0.227 | -0.141 | –
in vitro model: acidic pH 5.7, time point: terminal (~4-5 doublings, model-specific) | 0.0799 | 0.992 | -0.234 | -0.0208 | -0.284
in vitro model: intracellular J774, time point: constant = terminal | – | 0.98 | -0.184 | – | 0.00169

Details | AUC25, [2] | Einf, [4] | GRinf, [3] | total FIC50, [5] | total FIC90, [1]
in vitro model: butyrate, time point: constant (~7 days, model-specific) | 0.101 | 0.889 | 0.102 | 0.0451 | -0.0718
in vitro model: butyrate, time point: terminal (~4-5 doublings, model-specific) | 0.0909 | 0.956 | 0.0745 | 0.0568 | 0.587
in vitro model: cholesterol 0.05 mM, time point: constant (~7 days, model-specific) | 0.118 | 0.768 | -0.296 | – | –
in vitro model: cholesterol 0.05 mM, time point: terminal (~4-5 doublings, model-specific) | 0.103 | 0.936 | -0.415 | 1.28 | –
in vitro model: cholesterol-high 0.2 mM, time point: constant (~7 days, model-specific) | 0.0849 | 0.919 | -0.211 | 0.553 | –
in vitro model: cholesterol-high 0.2 mM, time point: terminal (~4-5 doublings, model-specific) | 0.0594 | 0.999 | -0.626 | 1.12 | 0.566
in vitro model: dormancy (butyrate + nitrate, low O2), time point: constant (~7 days, model-specific) | 0.0875 | 0.881 | 0.197 | 0.097 | 0.142
in vitro model: dormancy (butyrate + nitrate, low O2), time point: terminal (~4-5 doublings, model-specific) | 0.0996 | 0.995 | -0.152 | -0.593 | 0.838
in vitro model: standard 7H9 glycerol, time point: constant = terminal | 0.0581 | 0.893 | 0.139 | -0.0175 | –
in vitro model: valerate, time point: constant (~7 days, model-specific) | 0.0881 | 0.855 | 0.0565 | 0.0684 | –
in vitro model: valerate, time point: terminal (~4-5 doublings, model-specific) | 0.0574 | 0.918 | 0.0492 | 0.378 | -0.054

O=[N+]([O-])c1cn2c(n1)OC[C@@H](OCc1ccc(OC(F)(F)F)cc1)C2 [pretomanid] + NC(=O)c1cnccn1 [pyrazinamide] + CO[C@H]1/C=C/O[C@@]2(C)Oc3c(C)c(O)c4c(O)c(c(/C=N/N5CCN(C)CC5)c(O)c4c3C2=O)NC(=O)/C(C)=C\C=C\[C@H](C)[C@H](O)[C@@H](C)[C@@H](O)[C@@H](C)[C@H](OC(C)=O)[C@@H]1C [rifampicin]
Details | AUC25, [2] | Einf, [4] | GRinf, [3] | total FIC50, [5] | total FIC90, [1]
in vitro model: acidic pH 5.7, time point: constant (~7 days, model-specific) | 0.0685 | 0.907 | -0.202 | 0.112 | –
in vitro model: acidic pH 5.7, time point: terminal (~4-5 doublings, model-specific) | 0.0533 | 0.988 | -0.228 | 0.156 | -0.637
in vitro model: intracellular J774, time point: constant = terminal | – | 0.981 | -0.237 | – | -0.273

Details | AUC25, [2] | Einf, [4] | GRinf, [3] | total FIC50, [5] | total FIC90, [1]
in vitro model: butyrate, time point: constant (~7 days, model-specific) | 0.1 | 0.875 | 0.153 | -0.0322 | –
in vitro model: butyrate, time point: terminal (~4-5 doublings, model-specific) | 0.098 | 0.943 | 0.0978 | -0.158 | 0.429
in vitro model: cholesterol 0.05 mM, time point: constant (~7 days, model-specific) | 0.109 | 0.694 | -0.0437 | – | –
in vitro model: cholesterol 0.05 mM, time point: terminal (~4-5 doublings, model-specific) | 0.0891 | 0.895 | -0.0945 | 1.25 | –
in vitro model: cholesterol-high 0.2 mM, time point: constant (~7 days, model-specific) | 0.071 | 0.867 | -0.142 | 0.75 | –
in vitro model: cholesterol-high 0.2 mM, time point: terminal (~4-5 doublings, model-specific) | 0.0574 | 0.997 | -0.5 | 1.36 | 0.673
in vitro model: dormancy (butyrate + nitrate, low O2), time point: constant (~7 days, model-specific) | 0.0775 | 0.863 | 0.209 | -0.0806 | -0.525
in vitro model: dormancy (butyrate + nitrate, low O2), time point: terminal (~4-5 doublings, model-specific) | 0.0697 | 0.983 | -0.11 | -0.485 | -0.0518
in vitro model: standard 7H9 glycerol, time point: constant = terminal | 0.0634 | 0.897 | 0.147 | -0.426 | –
in vitro model: valerate, time point: constant (~7 days, model-specific) | 0.0616 | 0.854 | 0.084 | 0.491 | –
in vitro model: valerate, time point: terminal (~4-5 doublings, model-specific) | 0.0376 | 0.933 | 0.0442 | 0.477 | -0.0725
